Results published in patent US10350206B2, “Benzyl substituted indazoles as BUB1 inhibitors” (Bayer Pharma Aktiengesellschaft, priority 2014, dated 2019).
Read-outs that look alike come from different tables or passages of the source.

Tests used:
[1] = target: T1, catalytic domain of human Bub1 (amino acids 704-1085) (Homo sapiens, UniProt O43683); assay: Bub1 kinase assay (TR-FRET); format: biochemical; settings: 10 μM ATP, 60 min reaction, pH 7.5; read-out: Biological Assay 1: Bub1 kinase assay median IC50
T1 construct: catalytic domain of human Bub1 (amino acids 704-1085); His6 (N); made in house; host or cells: Hi5 insect cells
T1 sequence (O43683 704-1085): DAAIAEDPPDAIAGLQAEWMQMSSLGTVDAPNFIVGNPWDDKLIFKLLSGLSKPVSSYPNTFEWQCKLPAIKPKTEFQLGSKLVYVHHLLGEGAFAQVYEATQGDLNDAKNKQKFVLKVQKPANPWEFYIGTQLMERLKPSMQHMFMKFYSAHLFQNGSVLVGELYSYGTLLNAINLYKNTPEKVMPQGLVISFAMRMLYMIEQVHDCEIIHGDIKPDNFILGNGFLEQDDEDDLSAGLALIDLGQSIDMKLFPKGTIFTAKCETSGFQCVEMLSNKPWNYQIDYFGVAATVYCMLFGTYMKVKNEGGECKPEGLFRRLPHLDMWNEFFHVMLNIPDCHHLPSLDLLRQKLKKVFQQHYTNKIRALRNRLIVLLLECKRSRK
Procedure: To this end, 100-fold concentrated compound solutions (in DMSO) were previously prepared by serial dilution (1:3.4) of 2 mM stocks in a clear low volume 384-well source microtiter plate (Greiner Bio-One, Frickenhausen, Germany), from which 50 nL of compounds were transferred into a black low volume test microtiter plate from the same supplier. […] The resulting mixture (5 μL final volume) was incubated at 22° during 60 min., and the reaction was stopped by the addition of 5 μL of an aqueous EDTA-solution (50 mM EDTA, in 100 mM HEPES pH 7.5 and 0.2% (w/v) bovine serum albumin) which also contained the TR-FRET detection reagents (0.2 μM streptavidin-XL665 [Cisbio Bioassays, Codolet, France] and 1 nM anti-phosho-Serine antibody [Merck Millipore, cat. #35-001] and 0.4 nM LANCE EU-W1024 labeled anti-mouse IgG antibody [Perkin-Elmer, product no. AD0077, alternatively a Terbium-cryptate-labeled anti-mouse IgG antibody from Cisbio Bioassays can be used]). The stopped reaction mixture was further incubated 1 h at 22° C. in order to allow the formation of complexes between peptides and detection reagents. Subsequently, the amount of product was evaluated by measurement of the resonance energy transfer from the Eu-chelate-antibody complex recognizing the Phosphoserine residue to the streptavidin-XL665 bound to the biotin moiety of the peptide. […] IC50 values were calculated by fitting the normalized inhibition data to a 4-parameter logistic equation (Minimum, Maximum, IC50, Hill; Y=Max+(Min−Max)/(1+(X/IC50)Hill)).

[2] = test system: Bub1 kinase (pre-induced phospho-histone 2A); assay: H2A Abrogation-Assay (cell-based mechanistic assay, pre-treatment with Nocodazole); settings: read-out: Biological Assay 4.2: H2A Abrogation IC50
Procedure: Biological Assay 4.2: Abrogation-Assay
Cell-Based Mechanistic Assay: Changes of Phosphorylation Status of Pre-Induced Phospho-Histone 2A by Inhibition of Kinase Activity of Bub1
This assay measures the inhibition of histone 2A phosphorylation, which was induced by pre-treatment of the cells with Nocodazole, by a Bub1 kinase inhibitor. 25000 cells (cells were ordered from ATCC) were seeded in 96 well plate for 5 h at 37° C. Cells were treated with Nocodazole (1 μg/ml). After 16h varying concentrations (between 3 nM and 10 μM) of test compounds were added and the cells were incubated for another 1h. Cells were fixed (20 min, Fixing solution R&D), washed three times with PBS and blocked with Odyssey blocking buffer before incubating with the primary antibody against phosphorylated H2A (5 μg/ml ABIN482721) overnight at 2-8° C. After washing, secondary IRDye-labeled antibody mix with cell stains was added for 1h and washed again with PBS. Plates were scanned with LiCor Odyssey Infrared Imager CLx at 800 nm for P-H2A and at 700 nm for cell stains Draq5/Sapphire. The quotient of 800 nm and 700 nm for Nocodazole only treated cells was set as 100% and the quotient of 800 nm and 700 nm of untreated cells was set as 0%. […] The IC50 values were determined by means of a 4 parameter fit.
(§1) Histone H2A is an immediate intracellular substrate of Bub1 kinase. Determination of the phosphorylation status of Histone H2A provides a direct measure of the intracellular activity of Bub1 kinase.

[3] = test system: Bub1 kinase (histone 2A phosphorylation); assay: H2A Formation-Assay (cell-based mechanistic assay, co-treatment with Nocodazole); settings: 16 h, Nocodazole 1 μg/ml together with test compound for 16 h; read-out: Biological Assay 4.1: H2A Formation IC50
Procedure: Biological Assay 4.1: Formation-Assay
Cell-Based Mechanistic Assay: Changes of Phosphorylation Status of Histone 2A by Inhibition of Kinase Activity of Bub1
This assay determines the suppression of histone 2A phosphorylation by a Bub1 kinase inhibitor during co-treatment with Nocodazole. 25000 cells (cells were ordered from ATCC) were seeded in 96 well plate for 5 h at 37° C. Cells were treated with Nocodazole (1 μg/ml) and varying concentrations (between 3 nM and 10 μM) of test compounds for 16h. Cells were fixed (20 min, Fixing solution R&D), washed three times with PBS and blocked with Odyssey blocking buffer before incubating with the primary antibody against phosphorylated H2A (5 μg/ml ABIN482721) overnight at […]. After washing, secondary IRDye-labeled antibody mix with cell stains was added for 1h and washed again with PBS. Plates were scanned with LiCor Odyssey Infrared Imager CLx at 800 nm for P-H2A and at 700 nm for cell stains Draq5/Sapphire. The quotient of 800 nm and 700 nm for Nocodazole only treated cells was set as 100% and the quotient of 800 nm and 700 nm of untreated cells was set as 0%. […] The IC50 values were determined by means of a 4 parameter fit.
as §1

[4] = test system: HeLa human cervical tumor cells; assay: Proliferation assay (HeLa cell line); format: cell-based; settings: 96 h, 4 days incubation, crystal violet, read-out: Biological Assay 2: Proliferation assay (HeLa cell line) median IC50
Procedure: Human tumour cells were originally obtained from the American Type Culture Collection (ATCC), the Deutsche Sammlung von Mikroorganismen und Zellkulturen (DSMZ, German Collection of Microorganisms and Cell Cultures), or Epo GmbH Berlin. Cultivated HeLa human cervical tumor cells (DSMZ ACC-57) were plated at a density of 3000 cells/well in a 96-well multititer plate in 200 μL of growth medium supplemented 10% fetal calf serum. After 24 hours, the cells of one plate (zero-point plate) were stained with crystal violet (see below), while the medium of the other plates was supplemented with the test substances in various concentrations (0 μM, as well as in the range of 0.001-10 μM; the final concentration of the solvent dimethyl sulfoxide was adjusted to 0.1%) using a Hewlett-Packard HP D300 Digital Dispenser. The cells were incubated for 4 days in the presence of test substances. […] After three washing cycles of the fixed cells with water, the plates were dried at room temperature. The cells were stained by adding 100 μL/measuring point of a 0.1% crystal violet solution (pH 3.0). After three washing cycles of the stained cells with water, the plates were dried at room temperature. The dye was dissolved by adding 100 μL/measuring point of a 10% acetic acid solution. […] The change of cell number, in percent, was calculated by normalization of the measured values to the absorption values of the zero-point plate (=0%) and the absorption of the untreated (0 μm) cells (=100%). The IC50 values were determined by means of a 4 parameter fit.

[5] = test system: HeLa human cervical tumor cells; assay: Proliferation Assay (HeLa+Paclitaxel); format: cell-based; settings: 3 nM paclitaxel, test substance 92 hours; read-out: Biological Assay 3: Proliferation Assay (HeLa + Paclitaxel) IC50
Procedure: Proliferation Assay (HeLa+Paclitaxel):
Cultivated HeLa human cervical tumor cells (DSMZ ACC-57) were plated at a density of 3000 cells/well in a 96-well multititer plate in 200 μL of growth medium supplemented 10% fetal calf serum. After 24 hours, the cells of one plate (zero-point plate) were stained with crystal violet (see below). The medium of the other plates was supplemented with 3 nM of paclitaxel (Sigma-Aldrich) and the cells were incubated at 37° C. After 4 hours the test substances were added in various concentrations (0 μM, as well as in the range of 0.001-10 μM; the final concentration of the solvent dimethyl sulfoxide was adjusted to 0.1%) using a Hewlett-Packard HP D300 Digital Dispenser. The cells were incubated for another 92 hours at 37° C. in the presence of test substances. […] After three washing cycles of the fixed cells with water, the plates were dried at room temperature. The cells were stained by adding 100 μL/measuring point of a 0.1% crystal violet solution (pH 3.0). After three washing cycles of the stained cells with water, the plates were dried at room temperature. The dye was dissolved by adding 100 μL/measuring point of a 10% acetic acid solution. […] The change of cell number, in percent, was calculated by normalization of the measured values to the absorption values of the zero-point plate (=0%) and the 5 absorption of the untreated (0 μm) cells (=100%). The IC50 values were determined by means of a 4 parameter fit.

[6] = Nocodazole 1 μg/ml 16 h, then test compound 1 h

| Compound | IC50 [1] | IC50 [2, 6] | IC50 [3] | IC50 [4] | IC50 [5] | IC50 [2] |
| --- | --- | --- | --- | --- | --- | --- |
| COc1cnc(-c2nn(Cc3c(F)cc(OCCO)cc3F)c3ccccc23)nc1Nc1ccncc1C1CC1 [Example 2-1-9, 2-{4-[(3-{4-[(3-cyclopropylpyridin-4-yl)amino]-5-methoxypyrimidin-2-yl}-1H-indazol-1-yl)methyl]-3,5-difluorophenoxy}ethanol] | 13 nM | – | – | – | – | – |
| COc1cnc(-c2nn(Cc3c(F)cc(OCCO)cc3F)c3ccccc23)nc1Nc1ccnc(NC(=O)C2CC2)c1 [Example 2-1-15, N-{4-[(2-{1-[2,6-difluoro-4-(2-hydroxyethoxy)benzyl]-1H-indazol-3-yl}-5-methoxy-pyrimidin-4-yl)amino]pyridin-2-yl}cyclopropanecarboxamide] | 9.8 nM | 1.2 nM | 24 nM | > 10000 nM | 360 nM | – |
| COc1cnc(-c2nn(Cc3c(F)cc(OCCOC(C)=O)cc3F)c3ccccc23)nc1Nc1ccncc1 [Example 6-3-1, 2-[3,5-difluoro-4-({3-[5-methoxy-4-(pyridin-4-ylamino)pyrimidin-2-yl]-1H-indazol-1-yl}methyl)phenoxy]ethyl acetate, reference compound] | – | – | – | 3300 nM | 650 nM | 3600 nM |
| COc1cnc(C)cc1Nc1nc(-c2nn(Cc3c(F)cc(OCCO)cc3F)c3ccccc23)ncc1OC [Example 2-1-19, 2-{3,5-difluoro-4-[(3-{5-methoxy-4-[(5-methoxy-2-methylpyridin-4-yl)amino]pyrimidin-2-yl}-1H-indazol-1-yl)methyl]phenoxy}ethanol] | 95 nM | – | – | > 10000 nM | 140 nM | – |
| COc1cnccc1Nc1nc(-c2nn(Cc3c(F)cc(OCCCO)cc3F)c3ccccc23)ncc1OC [Example 2-3-2, 3-{3,5-difluoro-4-[(3-{5-methoxy-4-[(3-methoxypyridin-4-yl)amino]pyrimidin-2-yl}-1H-indazol-1-yl)methyl]phenoxy}propan-1-ol] | 10 nM | 9.8 nM | – | 1000 nM | 55 nM | – |
| COc1cnc(-c2nn(Cc3c(F)cc(OCCO)cc3F)c3ccccc23)nc1Nc1ccnc(C(F)F)c1 [Example 2-1-7, 2-(4-{[3-(4-{[2-(difluoromethyl)pyridin-4-yl]amino}-5-methoxypyrimidin-2-yl)-1H-indazol-1-yl]methyl}-3,5-difluorophenoxy)ethanol] | 23 nM | – | 27 nM | 9100 nM | 480 nM | – |
| COc1cnc(-c2nn(Cc3c(F)cc(OCCO)cc3F)c3ccccc23)nc1Nc1cc(C)nc(C)n1 [Example 2-4-1, 2-{4-[(3-{4-[(2,6-dimethylpyrimidin-4-yl)amino]-5-methoxypyrimidin-2-yl}-1H-indazol-1-yl)methyl]-3,5-difluorophenoxy}ethanol] | 37 nM | – | – | – | – | – |

More lines, in order of falling IC50 [1], values ahead:

| IC50 [1] | IC50 [2, 6] | IC50 [3] | IC50 [4] | IC50 [5] | IC50 [2] | Compound |
| --- | --- | --- | --- | --- | --- | --- |
| 31 nM | – | – | > 10000 nM | 120 nM | – | COc1cnc(-c2nn(Cc3c(F)cc(OCCO)cc3F)c3ccccc23)nc1Nc1cc(C)ncc1C [Example 2-1-8, 2-{4-[(3-{4-[(2,5-dimethylpyridin-4-yl)amino]-5-methoxypyrimidin-2-yl}-1H-indazol-1-yl)methyl]-3,5-difluorophenoxy}ethanol] |
| 21 nM | – | – | – | – | – | CCOc1cc(F)c(Cn2nc(-c3ncc(OCCOCCNC(=S)Nc4ccc(-c5c6ccc(=O)cc-6oc6cc(O)ccc56)c(C(=O)O)c4)c(Nc4ccncc4)n3)c3ccccc32)c(F)c1 [Example 6-5-1, 5-[({2-[2-({2-[1-(4-ethoxy-2,6-difluorobenzyl)-1H-indazol-3-yl]-4-(pyridin-4-ylamino)pyrimidin-5-yl}oxy)ethoxy]ethyl}carbamothioyl)amino]-2-(6-hydroxy-3-oxo-3H-xanthen-9-yl)benzoic acid, reference compound] |
| 19 nM | 5.2 nM | 4.9 nM | 5100 nM | 110 nM | – | COc1cnc(-c2nn(Cc3c(F)cc(OCCO)cc3F)c3ccccc23)nc1Nc1ccnc(F)c1 [Example 2-1-11, 2-{3,5-difluoro-4-[(3-{4-[(2-fluoropyridin-4-yl)amino]-5-methoxypyrimidin-2-yl}-1H-indazol-1-yl)methyl]phenoxy}ethanol] |
| 17 nM | > 1000 nM | > 1000 nM | 2600 nM | 160 nM | – | COc1cnc(-c2nn(Cc3c(F)cc(OCCCO)cc3F)c3ccccc23)nc1Nc1ccnc(C)c1 [Example 2-3-8, 3-{3,5-difluoro-4-[(3-{5-methoxy-4-[(2-methylpyridin-4-yl)amino]pyrimidin-2-yl}-1H-indazol-1-yl)methyl]phenoxy}propan-1-ol] |
